Assay [1] has as its system Alternaria solani. Put plainly: Greenhouse Alternaria solani test in tomato, preventive. The format is in vivo. The following applies: 24 h, tomato plants sprayed one day before inoculation, read-out: Efficacy (% control), disease severity vs untreated check. Here is the method: Compounds were dissolved in 2% DMSO/Acetone & then mixed with water to calibrated spray volume of 50 ml. This 50 ml spray solution was poured into the spray bottles for further applications. To test the preventive activity of compounds, healthy young Tomato plants raised in the greenhouse were sprayed with active compound preparation at the stated application rates inside the spray cabinets using hallowcone nozzles. One day after treatment, the plants were inoculated with spore suspension (2% Malt) containing 0.24×10^6 Alternaria solani inoculum. The inoculated plants were then kept in greenhouse chamber at 22-24° C. temperature and 90-95% relative humidity for disease expression. […] Efficacy (% control) of the compounds was calculated by comparing the disease rating in the treatment with untreated control. The sprayed plants were also assessed for compound's phytotoxic effects by recording symptoms like necrosis, chlorosis and stunting.

For another assay, the system named is Rhizoctonia solani. The assay is described as follows: Rhizoctonia solani (rice sheath blight/potato black scurf) in vitro test, radial growth on Potato Dextrose Agar. The format is cell-based. The following applies: 168 h, 300 ppm, seven days, 25° C., read-out: % control compared to the untreated check (radial growth).
For assay [2], the system named is Alternaria solani. The assay is described as follows: Alternaria solani (early blight of tomato/potato) in vitro test, radial growth on Potato Dextrose Agar. The format is cell-based. Particulars: 168 h, 300 ppm, seven days, 25° C., read-out: % control compared to the untreated check (radial growth).
The subject of a further assay is Botrytis cinera. Put plainly: Greenhouse Botrytis cinera test in tomato, preventive. The following applies: 24 h, plants sprayed one day before inoculation, read-out: Efficacy (% control), disease severity vs untreated check. The format is in vivo.
The next assay relates to Pyricularia oryzae. Put plainly: microbe, parasite or virus in culture. The format is cell-based. Particulars: 168 h, read-out: % control compared to the untreated check (radial growth).
The test system of the next assay is Septoria lycopersici. The assay is described as follows: Septoria lycopersici (leaf spot of tomato) in vitro test, radial growth on Potato Dextrose Agar. Particulars: 168 h, seven days, 25° C., read-out: % control compared to the untreated check (radial growth). The format is cell-based.
The subject of the next assay is Colletotrichum capsici. Put plainly: Colletotrichum capsici (anthracnose) in vitro test, radial growth on Potato Dextrose Agar. The format is cell-based. Particulars: Colletotrichum truncatum, 168 h; 300 ppm; seven days, 25° C.; read-out: % control compared to the untreated check (radial growth).
The subject of a further assay is Botrytis cinerea. Put plainly: Botrytis cinerea (gray mold) in vitro test, radial growth on Potato Dextrose Agar. The format is cell-based. Particulars: 168 h, 300 ppm, seven days, 22° C., read-out: % (control) compared to the untreated check (radial growth).
Assay [3] has as its system Fusarium culmorum. The assay is described as follows: Fusarium culmorum (foot rot of cereals) in vitro test, radial growth on Potato Dextrose Agar. The format is cell-based. Particulars: Fusarium culmorum, 168 h, read-out: % control compared to the untreated check (radial growth).
Assay [4] concerns Fusarium culmorum. The assay is described as follows: Greenhouse Fusarium culmorum test in wheat, preventive. The format is in vivo. The following applies: 24 h, read-out: Efficacy (% control), disease severity vs untreated check. The protocol: Compounds were dissolved in 2% DMSO/Acetone & then mixed with water to calibrated spray volume of 50 ml. This 50 ml spray solution was poured into the spray bottles for further applications.
To test the preventive activity of compounds, healthy young wheat plants raised in the greenhouse were sprayed with active compound preparation at the stated application rates inside the spray cabinets using hallowcone nozzles. One day after treatment, the plants were inoculated with spore suspension (2% Malt) containing 2×10^6 Fusarium culmorum inoculum. The inoculated plants were then kept in greenhouse chamber at 24° C. temperature and 80-90% relative humidity for disease expression.
A visual assessment of compound's performance was carried by rating the disease severity (0-100% scale) on treated plants on 3, 7, 10 and 15 days after application. Efficacy (% control) of the compounds was calculated by comparing the disease rating in the treatment with untreated control. The sprayed plants were also assessed for compound's phytotoxic effects by recording symptoms like necrosis, chlorosis and stunting.

As to `CCN(C)C=Nc1cc(C)c(C(OC)c2ccccc2)cc1C` (stereo not drawn) [Compound 2, N-ethyl-N′-(4-(methoxy(phenyl)methyl)-2,5-dimethylphenyl)-N-methylformimidamide], the pest or weed control at 500 ppm with Alternaria solani [1] and with Botrytis cinera was 70 to 100% throughout. Besides, the inhibition of growth at 300 ppm in the assay with Rhizoctonia solani was above 80%; in the assay with Alternaria solani [2], above 75%; in the assay with Pyricularia oryzae it was above 75%.

For the compound `CCN(C)C=Nc1cc(F)c(Cc2ccc(C)cc2)cc1C` [Compound 175, N-ethyl-N′-(5-fluoro-2-methyl-4-(4-methylbenzyl)phenyl)-N-methylformimidamide], the pest or weed control at 500 ppm with Alternaria solani [1] is 70 to 100%. Also, the inhibition of growth at 300 ppm with Rhizoctonia solani was above 80%; in the assay on Septoria lycopersici, above 70%; with Colletotrichum capsici it was above 80%; with Botrytis cinerea, above 80%; with Fusarium culmorum [3], 75%; with Alternaria solani [2] it was above 75%. Moreover, in the assay on Pyricularia oryzae, the inhibition of growth at 300 ppm was above 75%.

Consider `CCN(C)C=Nc1cc(C)c(Cc2cc(F)cc(Cl)c2)cc1Cl` [Compound 176, N′-(2-chloro-4-(3-chloro-5-fluorobenzyl)-5-methylphenyl)-N-ethyl-N-methylformimidamide], for which the pest or weed control at 500 ppm with Alternaria solani [1] was in the range of 70 to 100%. The inhibition of growth at 300 ppm was above 80% in the assay with Rhizoctonia solani; above 70% with Septoria lycopersici; above 80% in the assay with Colletotrichum capsici; above 80% in the assay on Botrytis cinerea; 75% with Fusarium culmorum [3]; above 75% in the assay on Alternaria solani [2]. Besides, in the assay with Pyricularia oryzae, the inhibition of growth at 300 ppm is above 75%.

`Cc1cc(N=CN2CCOCC2)c(C)cc1Cc1cccc(Br)c1F` [Compound 36, N-(4-(3-bromo-2-fluorobenzyl)-2,5-dimethylphenyl)-1-morpholinomethanimine]: in the assay with Alternaria solani [1], the pest or weed control at 500 ppm fell in the range of 70 to 100%. The figures for the inhibition of growth at 300 ppm in the assay on Rhizoctonia solani and in the assay with Pyricularia oryzae were above 80% and above 75%, respectively.

Regarding `CCN(C)C=Nc1cc(F)c(Cc2ccccc2Cl)cc1C` [Compound 174, N′-(4-(2-chlorobenzyl)-5-fluoro-2-methylphenyl)-N-ethyl-N-methylformimidamide], in the assay on Alternaria solani [1], the pest or weed control at 500 ppm was 70 to 100%. The inhibition of growth at 300 ppm in the assay with Rhizoctonia solani is above 80%; with Septoria lycopersici, above 70%; in the assay on Colletotrichum capsici, above 80%; in the assay on Botrytis cinerea, above 80%; in the assay on Fusarium culmorum [3] it was 75%; with Alternaria solani [2], above 75%. In the assay on Pyricularia oryzae, the inhibition of growth at 300 ppm was above 75%.

With `CCN(C)C=Nc1cc(C)c(Cc2ccccc2C#N)cc1C` [Compound 115, N′-(4-(2-cyanobenzyl)-2,5-dimethylphenyl)-N-ethyl-N-methylformimidamide], the pest or weed control at 500 ppm in the assay with Alternaria solani [1] lay in the range of 70 to 100%. For the same compound, the inhibition of growth at 300 ppm was above 80% in the assay on Rhizoctonia solani, above 80% in the assay on Colletotrichum capsici, above 75% with Alternaria solani [2] and above 75% in the assay on Pyricularia oryzae.

Consider `CCN(C)C=Nc1cc(C)c(Cc2ccc(C(F)(F)F)cc2)cc1C` [Compound 97, N′-(2,5-dimethyl-4-(4-(trifluoromethyl)benzyl)phenyl)-N-ethyl-N-methylformimidamide], for which the pest or weed control at 500 ppm in the assay on Alternaria solani [1] lay within 70 to 100%.

Consider `CCN(C)C=Nc1cc(C)c(Cc2ccc(C#N)cc2)cc1Cl` [Compound 68, N′-(2-chloro-4-(4-cyanobenzyl)-5-methylphenyl)-N-ethyl-N-methylformimidamide], for which, in the assay with Alternaria solani [1], the pest or weed control at 500 ppm lay in the range of 70 to 100%. In addition, the inhibition of growth at 300 ppm in the assay with Rhizoctonia solani is above 80%; with Septoria lycopersici, above 70%; with Fusarium culmorum [3], 75%; in the assay on Alternaria solani [2], above 75%; with Pyricularia oryzae it was above 75%.

Regarding `CCN(C)C=Nc1cc(C)c(Cc2ccccc2[N+](=O)[O-])cc1C` [Compound 50, N′-(2,5-dimethyl-4-(2-nitrobenzyl)phenyl)-N-ethyl-N-methylformimidamide], in the assay on Alternaria solani [1], the pest or weed control at 500 ppm lay in the range of 70 to 100%. The inhibition of growth at 300 ppm in the assay on Rhizoctonia solani was above 80%; in the assay with Septoria lycopersici, above 70%; in the assay with Colletotrichum capsici, above 80%; in the assay with Botrytis cinerea, above 80%; with Fusarium culmorum [3] it was 75%; with Alternaria solani [2], above 75%. The inhibition of growth at 300 ppm in the assay on Pyricularia oryzae is above 75%.

As for `CCN(C)C=Nc1cc(C)c(Cc2cccc(Cl)c2Cl)cc1Cl` [Compound 128, N′-(2-chloro-4-(2,3-dichlorobenzyl)-5-methylphenyl)-N-ethyl-N-methylformimidamide], in the assay with Alternaria solani [1], the pest or weed control at 500 ppm fell in the range of 70 to 100%. The inhibition of growth at 300 ppm in the assay with Rhizoctonia solani was above 80%; in the assay on Septoria lycopersici, above 70%; in the assay on Colletotrichum capsici it was above 80%; in the assay on Botrytis cinerea it was above 80%; in the assay with Alternaria solani [2], above 75%; with Pyricularia oryzae, above 75%.

`CCN(C)C=Nc1cc(C)c(Cc2cc(F)ccc2Cl)cc1Cl` [Compound 178, N′-(2-chloro-4-(2-chloro-5-fluorobenzyl)-5-methylphenyl)-N-ethyl-N-methylformimidamide]: in the assay on Alternaria solani [1], the pest or weed control at 500 ppm was 70 to 100%. Further, the inhibition of growth at 300 ppm in the assay with Rhizoctonia solani is above 80%; in the assay with Septoria lycopersici it was above 70%; in the assay on Colletotrichum capsici it was above 80%; in the assay with Botrytis cinerea, above 80%; in the assay on Fusarium culmorum [3], 75%; in the assay with Alternaria solani [2], above 75%. In the assay with Pyricularia oryzae, the inhibition of growth at 300 ppm is above 75%.

On to `CCN(C)C=Nc1cc(C)c(Cc2ccc(SC)cc2)cc1C` [Compound 8, N′-(2,5-dimethyl-4-(4-(methylthio)benzyl)phenyl)-N-ethyl-N-methylformimidamide], for which the pest or weed control at 500 ppm in the assay on Alternaria solani [1] was 70 to 100%. Moreover, the inhibition of growth at 300 ppm with Rhizoctonia solani is above 80%; in the assay with Septoria lycopersici, above 70%; with Colletotrichum capsici, above 80%; in the assay on Botrytis cinerea it was above 80%; in the assay with Alternaria solani [2], above 75%; in the assay with Pyricularia oryzae, above 75%.

`CCN(C)C=Nc1cc(C)c(Cc2cccc([N+](=O)[O-])c2)cc1Cl` [Compound 71, N′-(2-chloro-5-methyl-4-(3-nitrobenzyl)phenyl)-N-ethyl-N-methylformimidamide]: in the assay on Alternaria solani [1], the pest or weed control at 500 ppm is 70 to 100%. Moreover, the inhibition of growth at 300 ppm is above 80% in the assay with Rhizoctonia solani; above 70% with Septoria lycopersici; above 80% in the assay with Colletotrichum capsici; above 80% in the assay on Botrytis cinerea; 75% in the assay with Fusarium culmorum [3]; above 75% with Alternaria solani [2]. The inhibition of growth at 300 ppm in the assay on Pyricularia oryzae was above 75%.

Take `CCN(C)C=Nc1cc(C)c(Cc2ccc(F)cc2F)cc1C` [Compound 161, N′-(4-(2,4-difluorobenzyl)-2,5-dimethylphenyl)-N-ethyl-N-methylformimidamide]: the pest or weed control at 500 ppm in the assay with Alternaria solani [1] lay within 70 to 100%. In addition, the inhibition of growth at 300 ppm in the assay on Rhizoctonia solani is above 80%; in the assay on Septoria lycopersici, above 70%; in the assay on Colletotrichum capsici it was above 80%; in the assay on Botrytis cinerea, above 80%; in the assay with Fusarium culmorum [3] it was 75%; with Alternaria solani [2] it was above 75%. Also, in the assay with Pyricularia oryzae, the inhibition of growth at 300 ppm was above 75%.

As to `CCN(C)C=Nc1cc(C)c(Cc2ccc(Br)cc2)cc1Cl` [Compound 22, N′-(4-(4-bromobenzyl)-2-chloro-5-methylphenyl)-N-ethyl-N-methylformimidamide], the inhibition of growth at 300 ppm is above 80% with Rhizoctonia solani; above 70% in the assay on Septoria lycopersici; above 80% with Colletotrichum capsici; above 80% in the assay with Botrytis cinerea; 75% in the assay on Fusarium culmorum [3]; above 75% in the assay with Alternaria solani [2]. Further, in the assay with Pyricularia oryzae, the inhibition of growth at 300 ppm is above 75%. The pest or weed control at 500 ppm with Fusarium culmorum [4] and in the assay with Botrytis cinera was 70 to 100% each time.

The record behind these values is patent US11155517B2, “4-substituted phenylamine derivatives and their use to protect crops by fighting undesired phytopathogenic micoorganisms” (PI INDUSTRIES LTD., priority 2016, dated 2021).
